Assay results taken from PubChem BioAssay AID2060503 (Molecular Pharmacology Branch, DTP, NCI, 2025).

Test system: 817829-284-R-J1-PDC complex spheroids, viability
Assay: Anticancer human tumor 817829-284-R-J1-PDC patient-derived colon adenocarcinoma cell line growth inhibition [GQUAD]
Details: second compound 0.316 µM; first compound 0.316 µM; active compounds read low
Method in brief: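 Multi-cell-type spheroids of tumor cells with HUVEC and mesenchymal stem cells, treated with drug combinations. Concentrations descend in half-log steps from near clinical Cmax, or from 10 microM where Cmax is unknown; viability read-out.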
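Further: spheroids exposed to agents for 7 days before readout; percent viability relative to DMSO vehicle control taken as 100%.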

| SMILES | viability, T/C |
| --- | --- |
| CC1COCCN1c1cc(C2(S(C)(=N)=O)CC2)nc(-c2ccnc3[nH]ccc23)n1 (stereo unspecified) + CN(C)c1ccc(Nc2c3ccc(NC(=O)CCN4CCCC4)cc3nc3cc(NC(=O)CCN4CCCC4)ccc23)cc1 | 79.8% |
| COc1ccc([C@@H](O)c2cc(-c3ncnc4cc(N5CCOCC5)ccc34)c(F)cc2Cl)nn1 + CN(C)c1ccc(Nc2c3ccc(NC(=O)CCN4CCCC4)cc3nc3cc(NC(=O)CCN4CCCC4)ccc23)cc1 | 115% |
| Cn1ncnc1[C@H]1c2n[nH]c(=O)c3cc(F)cc(c23)N[C@@H]1c1ccc(F)cc1 + CN(C)c1ccc(Nc2c3ccc(NC(=O)CCN4CCCC4)cc3nc3cc(NC(=O)CCN4CCCC4)ccc23)cc1 | 78.6% |

Same assay, conditions: second compound 0.316 µM; first compound 1 µM; active compounds read low

| SMILES | viability, T/C |
| --- | --- |
| CC(C)n1c(=O)n(C)c2cnc3cc(F)c(-c4ccc(OCCCN5CCCCC5)nc4)cc3c21 + CN(C)c1ccc(Nc2c3ccc(NC(=O)CCN4CCCC4)cc3nc3cc(NC(=O)CCN4CCCC4)ccc23)cc1 | 102% |
| CC1COCCN1c1cc(-c2ccnn2C)c2ccnc(-c3ccn[nH]3)c2n1 (stereo unspecified) + CN(C)c1ccc(Nc2c3ccc(NC(=O)CCN4CCCC4)cc3nc3cc(NC(=O)CCN4CCCC4)ccc23)cc1 | 9.2% |
| CC1COCCN1c1cc(C2(O)CC3CCC(C2)O3)c2cnn(-c3ccn[nH]3)c2n1 (stereo unspecified) + CN(C)c1ccc(Nc2c3ccc(NC(=O)CCN4CCCC4)cc3nc3cc(NC(=O)CCN4CCCC4)ccc23)cc1 | 7.63% |
| CC1COCCN1c1cc(C2(S(C)(=N)=O)CC2)nc(-c2ccnc3[nH]ccc23)n1 (stereo unspecified) + CN(C)c1ccc(Nc2c3ccc(NC(=O)CCN4CCCC4)cc3nc3cc(NC(=O)CCN4CCCC4)ccc23)cc1 | 24.7% |
| COc1ccc([C@@H](O)c2cc(-c3ncnc4cc(N5CCOCC5)ccc34)c(F)cc2Cl)nn1 + CN(C)c1ccc(Nc2c3ccc(NC(=O)CCN4CCCC4)cc3nc3cc(NC(=O)CCN4CCCC4)ccc23)cc1 | 95.5% |

Same assay, conditions: second compound 0.316 µM; first compound 3.16 µM; active compounds read low

| SMILES | viability, T/C |
| --- | --- |
| CC(C)n1c(=O)n(C)c2cnc3cc(F)c(-c4ccc(OCCCN5CCCCC5)nc4)cc3c21 + CN(C)c1ccc(Nc2c3ccc(NC(=O)CCN4CCCC4)cc3nc3cc(NC(=O)CCN4CCCC4)ccc23)cc1 | 104% |
| CC1COCCN1c1cc(-c2ccnn2C)c2ccnc(-c3ccn[nH]3)c2n1 (stereo unspecified) + CN(C)c1ccc(Nc2c3ccc(NC(=O)CCN4CCCC4)cc3nc3cc(NC(=O)CCN4CCCC4)ccc23)cc1 | 6.26% |
| CC1COCCN1c1cc(C2(O)CC3CCC(C2)O3)c2cnn(-c3ccn[nH]3)c2n1 (stereo unspecified) + CN(C)c1ccc(Nc2c3ccc(NC(=O)CCN4CCCC4)cc3nc3cc(NC(=O)CCN4CCCC4)ccc23)cc1 | 5.34% |
| CC1COCCN1c1cc(C2(S(C)(=N)=O)CC2)nc(-c2ccnc3[nH]ccc23)n1 (stereo unspecified) + CN(C)c1ccc(Nc2c3ccc(NC(=O)CCN4CCCC4)cc3nc3cc(NC(=O)CCN4CCCC4)ccc23)cc1 | 9.67% |
| COc1ccc([C@@H](O)c2cc(-c3ncnc4cc(N5CCOCC5)ccc34)c(F)cc2Cl)nn1 + CN(C)c1ccc(Nc2c3ccc(NC(=O)CCN4CCCC4)cc3nc3cc(NC(=O)CCN4CCCC4)ccc23)cc1 | 76% |

Same assay, conditions: second compound 0.316 µM; first compound 10 µM; active compounds read low

| SMILES | viability, T/C |
| --- | --- |
| CC(C)n1c(=O)n(C)c2cnc3cc(F)c(-c4ccc(OCCCN5CCCCC5)nc4)cc3c21 + CN(C)c1ccc(Nc2c3ccc(NC(=O)CCN4CCCC4)cc3nc3cc(NC(=O)CCN4CCCC4)ccc23)cc1 | 110% |
| CC1COCCN1c1cc(-c2ccnn2C)c2ccnc(-c3ccn[nH]3)c2n1 (stereo unspecified) + CN(C)c1ccc(Nc2c3ccc(NC(=O)CCN4CCCC4)cc3nc3cc(NC(=O)CCN4CCCC4)ccc23)cc1 | 5.57% |
| CC1COCCN1c1cc(C2(O)CC3CCC(C2)O3)c2cnn(-c3ccn[nH]3)c2n1 (stereo unspecified) + CN(C)c1ccc(Nc2c3ccc(NC(=O)CCN4CCCC4)cc3nc3cc(NC(=O)CCN4CCCC4)ccc23)cc1 | 4.95% |
| CC1COCCN1c1cc(C2(S(C)(=N)=O)CC2)nc(-c2ccnc3[nH]ccc23)n1 (stereo unspecified) + CN(C)c1ccc(Nc2c3ccc(NC(=O)CCN4CCCC4)cc3nc3cc(NC(=O)CCN4CCCC4)ccc23)cc1 | 7.15% |
| COc1ccc([C@@H](O)c2cc(-c3ncnc4cc(N5CCOCC5)ccc34)c(F)cc2Cl)nn1 + CN(C)c1ccc(Nc2c3ccc(NC(=O)CCN4CCCC4)cc3nc3cc(NC(=O)CCN4CCCC4)ccc23)cc1 | 56.3% |

Same assay, conditions: second compound 1 µM; first compound 0.000999 µM; active compounds read low

| SMILES | viability, T/C |
| --- | --- |
| Cn1ncnc1[C@H]1c2n[nH]c(=O)c3cc(F)cc(c23)N[C@@H]1c1ccc(F)cc1 + CN(C)c1ccc(Nc2c3ccc(NC(=O)CCN4CCCC4)cc3nc3cc(NC(=O)CCN4CCCC4)ccc23)cc1 | 90% |

Same assay, conditions: second compound 1 µM; first compound 0.00316 µM; active compounds read low

| SMILES | viability, T/C |
| --- | --- |
| Cn1ncnc1[C@H]1c2n[nH]c(=O)c3cc(F)cc(c23)N[C@@H]1c1ccc(F)cc1 + CN(C)c1ccc(Nc2c3ccc(NC(=O)CCN4CCCC4)cc3nc3cc(NC(=O)CCN4CCCC4)ccc23)cc1 | 99% |

Same assay, conditions: second compound 1 µM; first compound 0.00999 µM; active compounds read low

| SMILES | viability, T/C |
| --- | --- |
| Cn1ncnc1[C@H]1c2n[nH]c(=O)c3cc(F)cc(c23)N[C@@H]1c1ccc(F)cc1 + CN(C)c1ccc(Nc2c3ccc(NC(=O)CCN4CCCC4)cc3nc3cc(NC(=O)CCN4CCCC4)ccc23)cc1 | 99.6% |

Same assay, conditions: second compound 1 µM; first compound 0.0316 µM; active compounds read low

| SMILES | viability, T/C |
| --- | --- |
| CC(C)n1c(=O)n(C)c2cnc3cc(F)c(-c4ccc(OCCCN5CCCCC5)nc4)cc3c21 + CN(C)c1ccc(Nc2c3ccc(NC(=O)CCN4CCCC4)cc3nc3cc(NC(=O)CCN4CCCC4)ccc23)cc1 | 94.1% |
| CC1COCCN1c1cc(-c2ccnn2C)c2ccnc(-c3ccn[nH]3)c2n1 (stereo unspecified) + CN(C)c1ccc(Nc2c3ccc(NC(=O)CCN4CCCC4)cc3nc3cc(NC(=O)CCN4CCCC4)ccc23)cc1 | 45.9% |
| CC1COCCN1c1cc(C2(O)CC3CCC(C2)O3)c2cnn(-c3ccn[nH]3)c2n1 (stereo unspecified) + CN(C)c1ccc(Nc2c3ccc(NC(=O)CCN4CCCC4)cc3nc3cc(NC(=O)CCN4CCCC4)ccc23)cc1 | 29.1% |
| CC1COCCN1c1cc(C2(S(C)(=N)=O)CC2)nc(-c2ccnc3[nH]ccc23)n1 (stereo unspecified) + CN(C)c1ccc(Nc2c3ccc(NC(=O)CCN4CCCC4)cc3nc3cc(NC(=O)CCN4CCCC4)ccc23)cc1 | 86% |
| COc1ccc([C@@H](O)c2cc(-c3ncnc4cc(N5CCOCC5)ccc34)c(F)cc2Cl)nn1 + CN(C)c1ccc(Nc2c3ccc(NC(=O)CCN4CCCC4)cc3nc3cc(NC(=O)CCN4CCCC4)ccc23)cc1 | 88.9% |
| Cn1ncnc1[C@H]1c2n[nH]c(=O)c3cc(F)cc(c23)N[C@@H]1c1ccc(F)cc1 + CN(C)c1ccc(Nc2c3ccc(NC(=O)CCN4CCCC4)cc3nc3cc(NC(=O)CCN4CCCC4)ccc23)cc1 | 92.6% |

Same assay, conditions: second compound 1 µM; first compound 0.0999 µM; active compounds read low

| SMILES | viability, T/C |
| --- | --- |
| Cn1ncnc1[C@H]1c2n[nH]c(=O)c3cc(F)cc(c23)N[C@@H]1c1ccc(F)cc1 + CN(C)c1ccc(Nc2c3ccc(NC(=O)CCN4CCCC4)cc3nc3cc(NC(=O)CCN4CCCC4)ccc23)cc1 | 90.4% |

Same assay, conditions: second compound 1 µM; first compound 0.1 µM; active compounds read low

| SMILES | viability, T/C |
| --- | --- |
| CC(C)n1c(=O)n(C)c2cnc3cc(F)c(-c4ccc(OCCCN5CCCCC5)nc4)cc3c21 + CN(C)c1ccc(Nc2c3ccc(NC(=O)CCN4CCCC4)cc3nc3cc(NC(=O)CCN4CCCC4)ccc23)cc1 | 109% |
| CC1COCCN1c1cc(-c2ccnn2C)c2ccnc(-c3ccn[nH]3)c2n1 (stereo unspecified) + CN(C)c1ccc(Nc2c3ccc(NC(=O)CCN4CCCC4)cc3nc3cc(NC(=O)CCN4CCCC4)ccc23)cc1 | 19.1% |
| CC1COCCN1c1cc(C2(O)CC3CCC(C2)O3)c2cnn(-c3ccn[nH]3)c2n1 (stereo unspecified) + CN(C)c1ccc(Nc2c3ccc(NC(=O)CCN4CCCC4)cc3nc3cc(NC(=O)CCN4CCCC4)ccc23)cc1 | 16.7% |
